Patent US11098061B2 (Celgene CAR LLC, priority 2013, dated 2021)
pEC50, pIC50: −log10 of the molar value.

Legend:
[1] = molecular target: p38a activated, mitogen-activated protein kinase-activated protein kinase 2 (MAPKAP-K2 or MK-2) enzyme (Homo sapiens (Human), UniProt P49137); test: MK2 Omnia continuous-read kinase assay for compound potency; type: biochemical; details: [MK-2]=0.4 nM, [ATP]=1.0 mM, [ST3-Sox]=10 μM
Method in brief: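 Continuous Omnia fluorescence read (λex360/λem485) every 71 s after starting with 0.4 nM MK-2, with 1.0 mM ATP (appKM 8-10 μM) and 10 μM ST3-Sox substrate.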

MK2 [2] = molecular target: T1, MK2 (Homo sapiens (Human), UniProt P49137); test: MK2 cellular assay (Hsp27 phosphorylation in Thp-1 cells); type: cell-based; details: differentiated Thp-1 cells, compound 1 hour, 50 ng/ml LPS 15 minutes, phosphorylation of Hsp27; read-out: MK2EC50
Method in brief: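 PMA-differentiated (10 ng/ml, 2 days) human Thp-1 monocytic cells given compound for 1 h, washed, then stimulated with 50 ng/ml LPS for 15 min. Hsp27 phosphorylation measured by western blot of lysates (20 μg protein); EC50 from dose-response inhibition.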

MK2 [3] = molecular target: T1, MK2; test: MK2 modification assessment by whole protein mass spectrometry; type: binding; details: intact MK2, 60 min, 10-fold excess of compound to protein
Method in brief: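 MK2 treated with compound is analysed intact by MALDI-TOF after C4 cleanup in sinapinic acid matrix. Percent modification is the centroid mass shift against control MK2 divided by compound mass.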

TNFα release [4] = test: IV mouse PD experiment (TNFα release after LPS); type: in vivo; details: CD-1 male mice, less than 10 mg/kg IV, 1 hour prior to LPS
Protocol: CD-1 male mice, approximately 5 weeks old were acquired from Charles River Laboratories. Animals were housed in ventilated cages with a 12/12 light cycle and provided rodent chow and water ad libitum. Mice were acclimated at least 1 week prior to study initiation (approximately 6 weeks old). Five (5) mice per group were predosed with one of the following compounds: II-14, III-32, III-8, III-4, II-27 and III-40 (intravenously by lateral tail vein), 1 hour prior to LPS administration. LPS (E.Coli 055:B5 from Sigma, Cat #L2880) was diluted in 0.9% sterile saline (Webster Veterinary Supply, Cat #07-883-6734) to a final concentration of 30 μg/mL. Animals were administered 15 μg in 0.5 mL/mouse (approximately 0.5 mg/kg LPS) intraperitoneally. One hour post LPS administration, the mice were sacrificed via CO2 and whole blood was collected by cardiac puncture. Blood was placed in EDTA K2 tubes (Braintree Scientific, Cat #MT-1395), inverted 3 times and placed on wet ice until centrifugation at 4° C. Plasma was collected and stored on dry ice until stored at −80° C. until processing. TNFα levels were quantified using the “Mouse TNF-alpha Ultra-Sensitive Kit” from mesoscale.com (catalog number K152BHC-2) in conjunction with an MSD plate reader.

MK2 [5] = molecular target: T1, MK2; test: MK2 target occupancy assay in Thp-1 cells with Covalent probe 2; type: cell-based; details: 1 μM test compound, 1 hour at 37° C.
Protocol: This experiment measured occupancy of the MK2 target by compounds according to the invention. Thp-1 cells (human acute monocytic leukemia) were grown in suspension in T225 flasks. Two days prior to assay, Thp-1 cells were spun down, counted and plated at 1×10^6 cells per well of a 12 well plate in compete media containing 10 ng/ml PMA (phorbol myristate acetate) to differentiate the cells. On day of assay, cells were washed with complete media, and a -test compound was added to cells at a concentration of 1 μM in complete media and incubated for 1 hour at 37° C. Cells were washed 1× with PBS and lysed on ice with BioRad Bioplex lysis buffer. The lysates were incubated with 1 μM biotinylated MK2 Covalent probe 2 at room temperature for 1 hour. 50 μg of total protein from lysates was loaded on gel and blots were probed for total MK2 with SC-100393 antibody and for probe with streptavidin-800. The amount of covalent probe signal divided by the amount of MK2 signal for samples with no test compound treatment represents the maximum probe signal (MPS). In samples treated with test compound prior to covalent probe, the ratio of probe signal to MK2 signal (the test probe signal, TPS) will be reduced by the degree of target occupancy by the test compound which blocks covalent probe binding. […] This ratio is then expressed as a percent occupancy.

TNFα release [6] = test: PO mouse PD experiment (TNFα release after LPS); type: in vivo; details: CD-1 male mice, 100 mg/kg PO, 1 hour prior to LPS, read-out: % Inhibition of TNFa
TNFα release [7] = test: PO mouse PD experiment (TNFα release after LPS); type: in vivo; details: CD-1 male mice, 30 mg/kg PO, 1 hour prior to LPS, read-out: % Inhibition of TNFa
Protocol: CD-1 male mice, approximately 5 weeks old were acquired from Charles River Laboratories. Animals were housed in ventilated cages with a 12/12 light cycle and provided rodent chow and water ad libitum. Mice were acclimated at least 1 week prior to study initiation (approximately 6 weeks old). Five (5) mice per group were predosed at 30 mg/kg PO with one of the following compounds: III-8, III-35, II-27, III-47, III-56, V-39, II-27, III-37, II-e-1, II-e-3, III-40, and V-58 (by oral gavage as a suspension in 0.5% methyl cellulose/0.25% Tween 80 in deionized water), 1 hour prior to LPS administration. LPS (E.Coli 055:B5 from Sigma, Cat #L2880) was diluted in 0.9% sterile saline (Webster Veterinary Supply, Cat #07-883-6734) to a final concentration of 30 μg/mL. Animals were administered 15 μg in 0.5 mL/mouse (approximately 0.5 mg/kg LPS) intraperitoneally. One hour post LPS administration, the mice were sacrificed via CO2 and whole blood was collected by cardiac puncture. Blood was placed in EDTA K2 tubes (Braintree Scientific, Cat #MT-1395), inverted 3 times and placed on wet ice until centrifugation at 4° C. Plasma was collected and stored on dry ice until stored at −80° C. until processing. TNFα levels were quantified using the “Mouse TNF-alpha Ultra-Sensitive Kit” from mesoscale.com (catalog number K152BHC-2) in conjunction with an MSD plate reader.

MK2 [8] = molecular target: T1, MK2; test: MK2 Thp-1 washout assay; type: cell-based; details: up to 6 hours after a 100 nM exposure (1 hour) and subsequent washout, Thp-1 cells
Protocol: Test compounds were assayed in Thp-1 human acute monocytic leukemia cells. Thp-1 were grown in suspension in T225 flasks. Two days prior to assay, Thp-1 cells were spun down, counted and plated at 1×10^6 cells per well of a 12 well plate in complete media containing 10 ng/ml PMA (phorbol myristate acetate) to differentiate the cells. […] Cells were thoroughly washed to remove the unbound test compound and placed back in the 37° C. tissue culture incubator for the washout period (0 h, 2 h, 6 h, or 16 h). After the washout, complete media containing 50 ng/ml LPS (lipopolysaccharide) was added for 15 minute stimulation, the cells were washed once with PBS, and protein lysates were prepared on ice with BioRad Bioplex lysis buffer. 20 μg total protein from each lysate was loaded on the gel and analyzed by SDS-PAGE. Western blots were probed for phosphorylation of the MK2 substrate Hsp27.

T1 sequence (P49137 whole entry): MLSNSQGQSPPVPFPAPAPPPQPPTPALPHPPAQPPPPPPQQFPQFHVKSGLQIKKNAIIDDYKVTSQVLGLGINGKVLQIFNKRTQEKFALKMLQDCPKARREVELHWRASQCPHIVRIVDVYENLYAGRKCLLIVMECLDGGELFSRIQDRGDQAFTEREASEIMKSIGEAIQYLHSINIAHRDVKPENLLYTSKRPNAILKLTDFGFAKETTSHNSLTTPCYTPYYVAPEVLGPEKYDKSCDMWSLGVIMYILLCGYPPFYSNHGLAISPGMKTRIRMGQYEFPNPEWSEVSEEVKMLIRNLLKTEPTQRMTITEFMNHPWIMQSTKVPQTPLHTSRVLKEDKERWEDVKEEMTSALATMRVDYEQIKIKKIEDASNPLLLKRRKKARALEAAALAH
Chain of p38a activated, mitogen-activated protein kinase-activated protein kinase 2 (MAPKAP-K2 or MK-2) enzyme (P49137 whole entry): as above

Row | SMILES | pIC50 [1] | pEC50 (MK2 [2]) | MK2 Mass Mod (MK2 [3]) | reduction in TNFα release compared to untreated control (TNFα release [4]) | receptor occupancy at 1 µM (MK2 [5]) [%] | inhibition in vivo at 100 mg/kg (TNFα release [6]) [%] | inhibition in vivo at 30 mg/kg (TNFα release [7]) [%] | inhibition of p-hsp27 (phosphorylated hsp27) after washout (MK2 [8]) [%]
1 | C=CC(=O)Nc1cc(-c2cc3c(cn2)CCc2c-3[nH]c3c2C(=O)NCC3)cnc1OCCOC [II-14, N-(2-(2-methoxyethoxy)-5-(7-oxo-6,7,8,9,10,11-hexahydro-5H-pyrido[3′,4′:4,5]pyrrolo[2,3-f]isoquinolin-2-yl)pyridin-3-yl)acrylamide] | > 7.00 | > 7.00 | E (mass modification of ≥70%) | greater than 90% |  |  |  | 
2 | C=CC(=O)Nc1cc(-c2ccc3c(ccc4sc5c(c43)NC[C@@H](C)NC5=O)n2)ccc1OCCOC [III-8, (R)—N-(2-(2-methoxyethoxy)-5-(10-methyl-8-oxo-9,10,11,12-tetrahydro-8H-[1,4]diazepino[5′,6′:4,5]thieno[3,2-f]quinolin-3-yl)phenyl)acrylamide] | 6.30 to 7.00 | > 7.00 | E (mass modification of ≥70%) | greater than 90% | 92 | 21 to 80 |  | 
3 | C=CC(=O)Nc1cc(-c2ccc3c(ccc4sc5c(c43)NC[C@@H](C)NC5=O)n2)ccc1OCCN(C)C [III-40, (R)—N-(2-(2-(dimethylamino)ethoxy)-5-(10-methyl-8-oxo-9,10,11,12-tetrahydro-8H-[1,4]diazepino[5′,6′:4,5]thieno[3,2-f]quinolin-3-yl)phenyl)acrylamide] | > 7.00 | > 7.00 |  | greater than 90% |  |  | ≤ 20 | 
4 | C=CC(=O)Nc1cc(NC(=O)c2ccc3sc4c(c3c2)NC[C@@H](C)NC4=O)ccc1OCCN(C)C [III-35, (R)—N-(3-acrylamido-4-(2-(dimethylamino)ethoxy)phenyl)-3-methyl-5-oxo-2,3,4,5-tetrahydro-1H-benzo[4,5]thieno[3,2-e][1,4]diazepine-9-carboxamide] | > 7.00 | 6.30 to 7.00 | E (mass modification of ≥70%) |  |  |  | ≤ 20 | 
5 | C=CC(=O)N1CC(C)(C)Oc2ccc(NC(=O)c3ccc4sc5c(c4c3)NC[C@@H](C)NC5=O)cc21 [III-32, (R)—N-(4-acryloyl-2,2-dimethyl-3,4-dihydro-2H-benzo[b][1,4]oxazin-6-yl)-3-methyl-5-oxo-2,3,4,5-tetrahydro-1H-benzo[4,5]thieno[3,2-e][1,4]diazepine-9-carboxamide] | > 7.00 | > 7.00 | E (mass modification of ≥70%) | greater than 90% |  |  |  | 
6 | C=CC(=O)Nc1cc(NC(=O)c2ccc3sc4c(c3c2)NC[C@@H](C)NC4=O)ccc1N1CCN(C)CC1 [III-4, (R)—N-(3-acrylamido-4-(4-methylpiperazin-1-yl)phenyl)-3-methyl-5-oxo-2,3,4,5-tetrahydro-1H-benzo[4,5]thieno[3,2-e][1,4]diazepine-9-carboxamide] | > 7.00 | > 7.00 | E (mass modification of ≥70%) | greater than 90% |  |  |  | 
7 | C=CC(=O)Nc1cccc2oc(-c3ccc4cc5n(c4c3)C3(CCC3)CNC5=O)nc12 [Compound V-39, N-(2-(1′-oxo-2′,3′-dihydro-1′H-spiro[cyclobutane-1,4′-pyrazino [1,2-a]indol]-7′-yl)benzo[d]oxazol-4-yl)acrylamide] | 6.30 to 7.00 | 6.30 to 7.00 | E (mass modification of ≥70%) |  |  |  | ≥ 81 | 
8 | C=CC(=O)N1c2cc(NC(=O)c3ccc4cc5n(c4c3)C3(CCC3)CNC5=O)ccc2OCC1(C)C [Compound V-58, N-(4-acryloyl-3,3-dimethyl-3,4-dihydro-2H-benzo[b][1,4]oxazin-6-yl)-1′-oxo-2′,3′-dihydro-1′H-spiro[cyclobutane-1,4′-pyrazino [1,2-a]indole]-7′-carboxamide] | > 7.00 | > 7.00 | E (mass modification of ≥70%) |  |  |  | ≤ 20 | 
9 | C=CC(=O)Nc1cc(-c2cc3c(cn2)CCc2c-3[nH]c3c2C(=O)NC2(CC2)C3)ccc1OCCOC [II-11, N-(2-(2-methoxyethoxy)-5-(7′-oxo-5′,6′,7′,8′8′,1′,11′-hexahydrospiro[cyclopropane-1,9′-pyrido[3′,4′:4,5]pyrrolo[2,3-f]isoquinolin]-2′-yl)phenyl)acrylamide] | > 7.00 | > 7.00 | E (mass modification of ≥70%) |  | 95 |  |  | > 95
10 | C=CC(=O)Nc1cc(-c2cc3c(cn2)CCc2c-3[nH]c3c2C(=O)NC2(CC2)C3)ccc1N1CCN(C)CC1 [II-27, N-(2-(4-methylpiperazin-1-yl)-5-(7′-oxo-5′,6′,7′,8′,10′,11′-hexahydrospiro[cyclopropane-1,9′-pyrido[3′,4′:4,5]pyrrolo[2,3-f]isoquinolin]-2′-yl)phenyl)acrylamide] | > 7.00 | > 7.00 | E (mass modification of ≥70%) | greater than 90% |  |  | ≤ 20 | 
